Reference: patent publication US12421243B2, “Pharmaceutically effective compounds inhibiting selectively the myosin 2 isoforms” (PRINTNET KERESKEDELMI ÉS SZOLGÁLTATÓ KFT., priority 2018, dated 2025)

How the values were obtained:
[1] = target: recombinant human non-muscle myosin 2 NM2B (Homo sapiens, UniProt P35580); test: actomyosin steady state ATPase measurement, NM2B; assay type: biochemical; details: for IC50: concentration required for semi-maximal inhibition of ATPase; for % inhibition. complete NM2B: maximum value of inhibition of ATPase activity; for inhibition at 5 µM: read-out: % inhibition at 5 μM (or 10 μM if racemate) NM2B, 5 μM (10 μM if racemate); for inhibition at 5 µM / inhibition at 50 µM: ATPase activity; for inhibition at 50 µM: read-out: % inhibition at 50 μM (or 100 μM if racemate) NM2B, 50 μM (100 μM if racemate)
Source text: (§1) […]; (ii) the concentration required for semi-maximal inhibition.

[2] = tested on: isolated rabbit skeletal muscle myosin (skeletal); test: actomyosin steady state ATPase measurement, skeletal muscle myosin; assay type: biochemical; details: for % inhibition at 5 μM (or 10 μM if racemate) Skeletal: 5 μM (10 μM if racemate); for % inhibition at 5 μM (or 10 μM if racemate) Skeletal / % inhibition at 50 μM (or 100 μM if racemate) Skeletal: ATPase activity; for % inhibition at 50 μM (or 100 μM if racemate) Skeletal: 50 μM (100 μM if racemate); for IC50: concentration required for semi-maximal inhibition of ATPase; for % inhibition. complete Skeletal: maximum value of inhibition of ATPase activity
Source text: as §1

[3] = target: recombinant Dictyostelium miozin (Dictyostelium) (Dictyostelium discoideum, UniProt P08799); test: actomyosin steady state ATPase measurement, Dictyostelium myosin; assay type: biochemical; details: for IC50: concentration required for semi-maximal inhibition of ATPase, read-out: IC50 (μM) Dicty; for % inhibition. complete Dicty: maximum value of inhibition of ATPase activity; for inhibition at 5 µM: read-out: % inhibition at 5 μM (or 10 μM if racemate) Dicty; for inhibition at 50 µM: read-out: % inhibition at 50 μM (or 100 μM if racemate) Dicty
Source text: as §1

[4] = target: isolated smooth muscle myosin (UniProt P10587); assay type: biochemical, chamois; details: for % inhibition at 5 μM (or 10 μM if racemate) Smooth: 5 μM (10 μM if racemate); for % inhibition at 5 μM (or 10 μM if racemate) Smooth / % inhibition at 50 μM (or 100 μM if racemate) Smooth: ATPase activity; for % inhibition at 50 μM (or 100 μM if racemate) Smooth: 50 μM (100 μM if racemate); for % inhibition. complete Smooth: maximum value of inhibition of ATPase activity
[5] = target: isolated smooth muscle myosin (UniProt P10587); assay type: biochemical, chamois; details: concentration required for semi-maximal inhibition of ATPase
Source text: (ii) the concentration required for semi-maximal inhibition.

[6] = target: recombinant human non-muscle myosin 2 NM2A (Homo sapiens, UniProt P35579); test: actomyosin steady state ATPase measurement, NM2A; assay type: biochemical; details: for IC50: concentration required for semi-maximal inhibition of ATPase; for % inhibition. complete NM2A: maximum value of inhibition of ATPase activity; for inhibition at 5 µM: read-out: % inhibition at 5 μM (or 10 μM if racemate) NM2A, 5 μM (10 μM if racemate); for inhibition at 5 µM / inhibition at 50 µM: ATPase activity; for inhibition at 50 µM: read-out: % inhibition at 50 μM (or 100 μM if racemate) NM2A, 50 μM (100 μM if racemate); for Inhibition (%) NM2A: maximum inhibition, compounds in IC50 range 5-10 μM
Source text: as §1

[7] = target: T1, isolated porcine cardiac ventricular myocardium (cardiac) (Sus scrofa, UniProt P79293); test: actomyosin steady state ATPase measurement, cardiac myosin; assay type: biochemical; details: for IC50: concentration required for semi-maximal inhibition of ATPase; for % inhibition. complete cardiac: maximum value of inhibition of ATPase activity; for inhibition at 5 µM: read-out: % inhibition at 5 μM (or 10 μM if racemate) cardiac, 5 μM (10 μM if racemate); for inhibition at 5 µM / inhibition at 50 µM: ATPase activity; for inhibition at 50 µM: read-out: % inhibition at 50 μM (or 100 μM if racemate) cardiac, 50 μM (100 μM if racemate)
T1 construct: isolated porcine cardiac ventricular myocardium (cardiac); from tissue; host or cells: porcine cardiac ventricle
Source text: as §1

[8] = target: recombinant human non-muscle myosin 2 NM2C (Homo sapiens, UniProt Q7Z406); test: actomyosin steady state ATPase measurement, NM2C; assay type: biochemical; details: for IC50: concentration required for semi-maximal inhibition of ATPase; for % inhibition. complete NM2C: maximum value of inhibition of ATPase activity; for inhibition at 5 µM: read-out: % inhibition at 5 μM (or 10 μM if racemate) NM2C, 5 μM (10 μM if racemate); for inhibition at 5 µM / inhibition at 50 µM: ATPase activity; for inhibition at 50 µM: read-out: % inhibition at 50 μM (or 100 μM if racemate) NM2C, 50 μM (100 μM if racemate)
Source text: as §1

[9] = vital parameters of live anesthetized rats monitored during isometric force measurement; assay type: in vivo; details: anesthetized rat; for Maximum change of vital parameters (%) blood flow: neck arteries
Procedure: (§2) The maximum isometric force induced by the stimulation was determined after intraperitoneal injection of some of the compounds of the invention. During the measurement, the following parameters of live anesthetized rats were continuously monitored: • a) heart rate • b) blood flow in the neck arteries • c) respiratory frequency • d) blood oxygen saturation ratio

[10] = tested on: M. quadriceps femoris; test: isometric force measurement of live, anesthetized rat M. quadriceps femoris due to electrical stimulation; assay type: in vivo
Procedure: as §2, with “saturation ratio Results from live anesthetized rats are summarized in the table below.” for “saturation ratio”

recombinant human non-muscle myosin 2 NM2A, sequence (P35579 whole entry): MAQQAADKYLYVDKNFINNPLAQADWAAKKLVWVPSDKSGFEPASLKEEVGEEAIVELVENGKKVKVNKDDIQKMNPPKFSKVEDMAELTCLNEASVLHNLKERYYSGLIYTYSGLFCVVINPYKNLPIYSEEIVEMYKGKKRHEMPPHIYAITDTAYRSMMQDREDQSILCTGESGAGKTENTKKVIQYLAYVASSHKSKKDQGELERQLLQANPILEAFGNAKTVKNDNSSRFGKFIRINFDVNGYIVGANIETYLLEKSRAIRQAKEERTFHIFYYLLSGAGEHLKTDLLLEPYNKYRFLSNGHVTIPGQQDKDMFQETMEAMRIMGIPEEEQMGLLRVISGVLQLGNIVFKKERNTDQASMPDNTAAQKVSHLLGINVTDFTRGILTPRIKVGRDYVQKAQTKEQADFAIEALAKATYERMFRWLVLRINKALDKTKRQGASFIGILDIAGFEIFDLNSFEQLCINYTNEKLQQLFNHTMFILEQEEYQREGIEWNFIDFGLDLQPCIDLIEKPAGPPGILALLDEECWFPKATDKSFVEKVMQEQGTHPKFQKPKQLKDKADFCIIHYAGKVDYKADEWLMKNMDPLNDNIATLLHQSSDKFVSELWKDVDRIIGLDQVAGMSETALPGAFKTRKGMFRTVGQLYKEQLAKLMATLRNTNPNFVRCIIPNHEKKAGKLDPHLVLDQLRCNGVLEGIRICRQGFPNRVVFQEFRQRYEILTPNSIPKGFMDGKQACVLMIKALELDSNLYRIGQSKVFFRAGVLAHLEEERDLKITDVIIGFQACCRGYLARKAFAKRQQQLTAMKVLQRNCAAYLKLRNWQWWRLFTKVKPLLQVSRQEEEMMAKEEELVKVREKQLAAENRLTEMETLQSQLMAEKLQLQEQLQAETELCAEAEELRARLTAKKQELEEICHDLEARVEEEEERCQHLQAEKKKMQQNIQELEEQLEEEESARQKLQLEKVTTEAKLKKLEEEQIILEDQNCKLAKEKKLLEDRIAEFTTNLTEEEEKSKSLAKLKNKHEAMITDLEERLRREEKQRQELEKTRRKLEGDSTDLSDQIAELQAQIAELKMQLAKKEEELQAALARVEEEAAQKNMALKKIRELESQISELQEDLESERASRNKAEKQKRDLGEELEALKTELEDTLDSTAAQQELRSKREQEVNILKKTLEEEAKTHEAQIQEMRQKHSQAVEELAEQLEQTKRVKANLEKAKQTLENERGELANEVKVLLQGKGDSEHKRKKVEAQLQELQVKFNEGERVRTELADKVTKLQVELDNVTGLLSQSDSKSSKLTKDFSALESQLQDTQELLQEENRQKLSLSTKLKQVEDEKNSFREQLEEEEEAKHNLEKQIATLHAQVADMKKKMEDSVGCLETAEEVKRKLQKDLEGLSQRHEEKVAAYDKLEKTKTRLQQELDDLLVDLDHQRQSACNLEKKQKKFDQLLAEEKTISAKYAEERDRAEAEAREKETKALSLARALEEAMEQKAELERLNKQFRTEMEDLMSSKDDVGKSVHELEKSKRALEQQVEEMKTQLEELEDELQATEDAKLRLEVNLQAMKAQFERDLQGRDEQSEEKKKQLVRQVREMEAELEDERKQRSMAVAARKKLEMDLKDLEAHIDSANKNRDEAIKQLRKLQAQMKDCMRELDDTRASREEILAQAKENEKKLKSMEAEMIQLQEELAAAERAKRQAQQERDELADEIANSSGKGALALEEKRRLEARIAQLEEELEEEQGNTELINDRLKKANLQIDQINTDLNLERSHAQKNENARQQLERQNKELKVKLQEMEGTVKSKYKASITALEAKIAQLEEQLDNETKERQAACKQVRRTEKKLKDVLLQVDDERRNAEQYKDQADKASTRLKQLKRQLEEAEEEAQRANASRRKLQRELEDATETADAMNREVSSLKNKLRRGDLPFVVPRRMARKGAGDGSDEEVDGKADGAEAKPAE
recombinant human non-muscle myosin 2 NM2C, sequence (Q7Z406 whole entry): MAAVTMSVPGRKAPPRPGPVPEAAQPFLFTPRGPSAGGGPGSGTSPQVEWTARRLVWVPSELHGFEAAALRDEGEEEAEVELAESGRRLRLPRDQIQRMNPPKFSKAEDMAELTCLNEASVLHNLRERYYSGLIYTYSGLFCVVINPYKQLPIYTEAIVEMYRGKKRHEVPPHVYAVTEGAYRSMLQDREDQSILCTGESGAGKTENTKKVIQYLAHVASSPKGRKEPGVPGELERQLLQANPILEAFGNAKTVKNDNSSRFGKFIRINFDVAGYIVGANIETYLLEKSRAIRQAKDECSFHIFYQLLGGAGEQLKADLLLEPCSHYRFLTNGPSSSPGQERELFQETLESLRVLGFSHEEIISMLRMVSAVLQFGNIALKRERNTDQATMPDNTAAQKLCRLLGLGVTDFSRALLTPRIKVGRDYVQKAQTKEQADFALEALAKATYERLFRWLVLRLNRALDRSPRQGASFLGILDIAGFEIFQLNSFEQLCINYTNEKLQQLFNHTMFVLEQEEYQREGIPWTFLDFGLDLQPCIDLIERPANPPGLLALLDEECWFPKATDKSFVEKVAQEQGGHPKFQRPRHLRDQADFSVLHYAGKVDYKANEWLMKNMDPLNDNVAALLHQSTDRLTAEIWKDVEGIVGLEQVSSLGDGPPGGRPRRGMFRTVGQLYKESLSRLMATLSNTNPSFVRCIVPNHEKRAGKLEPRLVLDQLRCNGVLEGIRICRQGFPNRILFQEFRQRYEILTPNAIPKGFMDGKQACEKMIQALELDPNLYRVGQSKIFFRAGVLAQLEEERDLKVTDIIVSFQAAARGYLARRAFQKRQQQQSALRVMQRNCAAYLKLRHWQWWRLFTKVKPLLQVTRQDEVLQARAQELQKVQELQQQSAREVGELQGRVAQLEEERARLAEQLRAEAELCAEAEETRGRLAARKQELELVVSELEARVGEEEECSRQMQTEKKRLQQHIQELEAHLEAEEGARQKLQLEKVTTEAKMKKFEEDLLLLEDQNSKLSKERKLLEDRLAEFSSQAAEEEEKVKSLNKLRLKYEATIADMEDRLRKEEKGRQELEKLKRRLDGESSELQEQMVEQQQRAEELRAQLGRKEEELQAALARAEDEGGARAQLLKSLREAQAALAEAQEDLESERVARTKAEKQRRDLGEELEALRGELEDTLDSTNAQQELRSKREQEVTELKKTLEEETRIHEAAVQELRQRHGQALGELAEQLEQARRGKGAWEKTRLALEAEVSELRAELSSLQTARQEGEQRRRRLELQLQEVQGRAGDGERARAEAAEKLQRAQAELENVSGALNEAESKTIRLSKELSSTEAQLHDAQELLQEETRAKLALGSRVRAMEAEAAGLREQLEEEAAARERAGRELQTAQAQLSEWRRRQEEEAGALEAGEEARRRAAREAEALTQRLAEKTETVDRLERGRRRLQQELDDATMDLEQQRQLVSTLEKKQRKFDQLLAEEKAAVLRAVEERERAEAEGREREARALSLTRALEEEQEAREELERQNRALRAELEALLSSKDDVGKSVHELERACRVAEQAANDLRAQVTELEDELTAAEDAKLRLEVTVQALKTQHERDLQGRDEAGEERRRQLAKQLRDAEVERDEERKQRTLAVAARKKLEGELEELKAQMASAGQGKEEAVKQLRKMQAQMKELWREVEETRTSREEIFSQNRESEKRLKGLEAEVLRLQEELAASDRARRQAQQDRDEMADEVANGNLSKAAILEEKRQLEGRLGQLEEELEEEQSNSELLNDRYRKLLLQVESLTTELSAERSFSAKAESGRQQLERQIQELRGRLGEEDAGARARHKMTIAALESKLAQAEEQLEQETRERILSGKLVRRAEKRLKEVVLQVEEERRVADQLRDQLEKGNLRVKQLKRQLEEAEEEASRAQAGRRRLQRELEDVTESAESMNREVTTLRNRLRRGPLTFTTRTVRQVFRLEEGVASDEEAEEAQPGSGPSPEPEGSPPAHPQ

Row | SMILES | % inhibition at 5 μM (or 10 μM if racemate) Skeletal [2] | % inhibition at 50 μM (or 100 μM if racemate) Skeletal [2] | IC50 [2] | % inhibition. complete Skeletal [2] | IC50 [3] | inhibition at 5 µM [3] | inhibition at 50 µM [3] | % inhibition at 5 μM (or 10 μM if racemate) Smooth [4] | % inhibition at 50 μM (or 100 μM if racemate) Smooth [4] | % inhibition. complete Smooth [4] | IC50 [5] | inhibition at 5 µM [6] | inhibition at 50 µM [6] | IC50 [7] | % inhibition. complete cardiac [7] | inhibition at 5 µM [7] | inhibition at 50 µM [7] | IC50 [8] | inhibition at 5 µM [8] | inhibition at 50 µM [8] | other results
1 | O=C1c2sccc2N=C2N(c3ccccc3)CCC12O (stereo not drawn) [Compound 183, 7-Hydroxy-4-phenyl-10-thia-2,4-diazatricyclo[7.3.0.0^3,7]dodeca-1(9),2,11-trien-8-one] | 80% | 93% | 1 µM | 95% | 5 µM | 26% | 80% | 17% | 51% | 66% | 15 µM | 4% | 37% | 8 µM | 84% | 33% | 73% | 60 µM | 6% | 37% | IC50 [1]: 12 µM; % inhibition. complete NM2B [1]: 56%; inhibition at 5 µM [1]: 16%; inhibition at 50 µM [1]: 45%; % inhibition. complete Dicty [3]: 100%; IC50 [6]: 87 µM; % inhibition. complete NM2A [6]: 100%; % inhibition. complete NM2C [8]: 83%
2 | O=C1c2cccnc2N=C2N(c3ccccc3)CCC12O (stereo not drawn) [Compound 189, 3a-Hydroxy-1-phenyl-1H,2H,3H,3aH,4H-pyrrolo[2,3-b]1,8-naphthyridin-4-one] | 37% | 80% | 7 µM | 92% | > 100 µM | 0% | 0% | 8% | 7% | 8% | 1 µM | 4% | 7% | 26 µM | 72% | 11% | 47% | 1 µM | 11% | 13% | IC50 [1]: > 100 µM; inhibition at 5 µM [1]: 0%; inhibition at 50 µM [1]: -5%; Inhibition (%) smooth ([4]; maximum inhibition, compounds in IC50 range 1-5 μM): 8%; IC50 [6]: 6 µM; Inhibition (%) NM2A [6]: 8%; % inhibition. complete NM2A [6]: 8%
3 | O=C1c2ncccc2N=C2N(c3ccccc3)CCC12O (stereo not drawn) [Compound 190, 8a-Hydroxy-6-phenyl-6H,7H,8H,8aH,9H-pyrrolo[2,3-b]1,5-naphthyridin-9-one] |  | 86% |  |  |  |  | 44% |  | 34% |  |  |  | 15% |  |  |  | 43% |  |  | 41% | inhibition at 50 µM [1]: 24%
4 | Cc1cc2c(s1)N=C1N(c3ccccc3)CCC1(O)C2=O (stereo not drawn) [Compound 198, 9-Hydroxy-5-methyl-12-phenyl-4-thia-2,12-diazatricyclo[7.3.0.0^3,7]dodeca-1,3(7),5-trien-8-one] | 90% | 99% | 1 µM | 100% | 5 µM | 51% | 96% | 44% | 88% | 100% | 7.6 µM | 26% | 79% | 4 µM | 100% | 64% | 89% | 6.8 µM | 51% | 84% | IC50 [1]: 15.1 µM; % inhibition. complete NM2B [1]: 100%; inhibition at 5 µM [1]: 24%; inhibition at 50 µM [1]: 80%; % inhibition. complete Dicty [3]: 100%; IC50 [6]: 15 µM; % inhibition. complete NM2A [6]: 100%; Inhibition (%) cardiac ([7]; maximum inhibition, compounds in IC50 range 3-6 μM): 100%; % inhibition. complete NM2C [8]: 100%
5 | Cc1nsc2c1C(=O)C1(O)CCN(c3ccccc3)C1=N2 (stereo not drawn) [Compound 206, 12-phenyl-9-Hydroxy-6-methyl-4-thia-2,5,12-triazatricyclo[7.3.0.0^3,7]dodeca-1,3(7),5-trien-8-one] | 26% | 78% | 14 µM | 100% |  |  |  | 9% | 21% | 24% | 9 µM | 9% |  | 10 µM | 47% | 16% | 39% |  |  |  | 
6 | Cc1cc2c(s1)N=C1N(c3cccs3)CC[C@@]1(O)C2=O [Compound 208, (9S)-9-Hydroxy-5-methyl-12-(thiophen-2-yl)-4-thia-2,12-diazatricyclo[7.3.0.0^3,7]dodeca-1,3(7),5-trien-8-one] | 87% | 93% | 0.36 µM | 95% | 3.6 µM | 55% | 89% | 26% | 60% | 66% | 7.8 µM | 37% | 78% |  |  |  |  | 1.7 µM | 54% | 65% | Inhibition (%) Dicty ([3]; maximum inhibition, compounds in IC50 range 1-11 μM): 95%; % inhibition. complete Dicty [3]: 95%; IC50 [6]: 7.2 µM; Inhibition (%) NM2A [6]: 89%; % inhibition. complete NM2A [6]: 89%; % inhibition. complete NM2C [8]: 69%
7 | Cc1cc2c(s1)N=C1N(c3ccc(OC(F)(F)F)cc3)CCC1(O)C2=O (stereo not drawn) [Compound 223, 9-Hydroxy-5-methyl-12-[4-(trifluoromethoxy)phenyl]-4-thia-2,12-diazatricyclo[7.3.0.0^3,7]dodeca-1,3(7),5-trien-8-one] | 95% | 95% | 0.012 µM | 95% | 11.1 µM | 21% | 96% | 79% | 99% | 100% | 1.1 µM |  |  | 2.2 µM | 98% | 68% | 93% | 3 µM | 52% | 82% | Maximum change of vital parameters (%) heart rate ([9]; 0.2 mg i.p.): 5%; Maximum change of vital parameters (%) oxygen saturation ([9]; 0.2 mg i.p.): −10%; Maximum change of vital parameters (%) respiratory frequency ([9]; 0.2 mg i.p.): −13%; Maximum change of vital parameters (%) blood flow ([9]; 0.2 mg i.p.): 8%; Maximum change of vital parameters (%) heart rate ([9]; 1 mg i.p.): 19%; Maximum change of vital parameters (%) oxygen saturation ([9]; 1 mg i.p.): −7%; Maximum change of vital parameters (%) respiratory frequency ([9]; 1 mg i.p.): −22%; Maximum change of vital parameters (%) blood flow ([9]; 1 mg i.p.): 25%; % inhibition. complete Dicty [3]: 100%; Maximum change in isometric force at rear leg (%) ([10]; 0.2 mg i.p.): 23%; Maximum change in isometric force at rear leg (%) ([10]; 1 mg i.p.): 25%; % inhibition. complete NM2C [8]: 88%
